Experimental data reported in patent US20130041005A1, “PHARMACEUTICAL COMPOSITIONS COMPRISING NEUROPILIN INHIBITORS, AND THEIR USE FOR THE PREVENTION AND/OR TREATMENT OF ANGIOGENIC DISORDERS AND CANCERS” (TRAGEX PHARMA, priority 2011, published 2013).

Legend:
[1] = system: MDA-MB-231 cells; test: In vivo MDA-MB-231 tumor study in NOD-SCID mice; conditions: for tumor size: oral gavage (FIG. 8B); for percentage of survival at day 35: oral gavage (FIG. 8C)
Experimental: Female (NOD-SCID) mice 5-6 weeks old were injected subcutaneously with MDA-MB-231 cells (5.10^6) at a single site on their right flanks. Tumors were allowed to grow (19 days) to less than […] before being pair-matched by tumor size into treatment groups (8 mice/group). One group was treated with vehicles (8 mice/group receiving cremofor 12.5%/ethanol 12.5%/H2O), one group was treated with 10 mg/kg of the compound 1 of the invention (8 mice/group receiving compound 1+cremofor 12.5%/ethanol 12.5%/H2O), one group was treated with 50 mg/kg of the compound 1 of the invention ([…] receiving compound 1+cremofor 12.5%/ethanol 12.5%/H2O). All groups received daily by oral gavages for 5 consecutive days/weeks approximately 100 μL of a solution containing the compound 1 of the invention. Mice were weighed regularly to assess toxicity of the treatments and the tumors were measured with calipers (width×width×length×Pi/6) to determine tumor growth. Mice survival was assessed during the study and metastatic development was investigated in lung, spleen and liver.

[2] = system: HCT-116; test: WST-1 proliferation assay, HCT-116; assay type: cell-based; conditions: Homo sapiens; HCT-116, 0.05 μM
[3] = system: ERY-1; test: WST-1 proliferation assay, ERY-1; assay type: cell-based; conditions: Homo sapiens; Erythroleukemia ERY-1; read-out: Anti-proliferative activity IC50 (μM) ± SD
Experimental: All the cancer cell lines were maintained in cultured in DMEM GlutaMAX™ (GIBCO Invitrogen, France, cat no 31966047) enhanced with 10% foetal bovine serum (GIBCO Invitrogen, France, cat no 10270-106) and 1% penicillin G/streptomycin (GIBCO Invitrogen, France, cat no 15140-122). Only Panc-10.5 cells were cultivated in RPMI 1640 medium (Gibco) supplemented with 2 mM L-glutamine, 1.5 g/L sodium bicarbonate, 4.5 g/L glucose, 10 mM HEPES, 1 mM sodium pyruvate, 10 Units/ml human insulin, […] (SVF): 15% (75 ml in 500 ml of medium).
Cells were grown as subconfluent monolayer and cultured in 75 cm^2 flasks at 37° C., 5% CO2 in a humidified atmosphere, and medium was changed every two days. […]
The cell proliferation WST-1 assay is a colorimetric assay for the quantification of cell proliferation and viability, based on the enzymatic cleavage of the tetrazolium salt WST-1 added to the culture medium, to a water soluble colored formazan dye, detected by absorbance at 450 nm, by mitochondrial succinate-tetrazolium reductase in viable cells. […]
After an incubation period of 72 h, at day 4, were prepared the 19 ml medium with reagent WST-1 1 ml ([…]). […] The cells were incubated at 37° C. in a humidified atmosphere of 5% CO2 for 1 h 30 and the absorbance at 450-655 nm was measured by Microplate Manager 5.2 (Bio-Rad).

With `Cc1ccc(-c2nc3ccccc3[nH]2)cc1NC(=S)NC(=O)c1ccc2c(c1)OCCO2` [Compound 1, N-[5-(1H-benzimidazol-2-yl)-2-methylphenyl]-N′-(2,3-dihydro-1,4-benzodioxin-6-ylcarbonyl)thiourea] the tumor size ([1]; 10 mg/kg) was “tumor size was smaller”, the “percentage of survival at day 35” value ([1]; 10 mg/kg) was “about 70%” and the tumor size ([1]; 50 mg/kg) was “tumor size was smaller”. The “percentage of survival at day 35” value ([1]; 50 mg/kg) was 100%, the inhibition at 0.05 µM [2] was 0% and the IC50 [3] was 0.3 ± 0.04 µM.
`O=C(NC(=S)Nc1cccc(-c2nc3ccccc3[nH]2)c1)c1ccc2c(c1)OCCO2` [Compound 2, N-[3-(1H-benzimidazol-2-yl)phenyl]-N′-(2,3-dihydro-1,4-benzodioxin-6-ylcarbonyl)thiourea] gave an inhibition at 0.05 µM [2] of 25% and an IC50 [3] of 0.1 ± 0.05 µM.
